One assay concerns the target T1, ETA receptor (wild type) (Homo sapiens, UniProt P25101).
T1 sequence (P25101 21-427): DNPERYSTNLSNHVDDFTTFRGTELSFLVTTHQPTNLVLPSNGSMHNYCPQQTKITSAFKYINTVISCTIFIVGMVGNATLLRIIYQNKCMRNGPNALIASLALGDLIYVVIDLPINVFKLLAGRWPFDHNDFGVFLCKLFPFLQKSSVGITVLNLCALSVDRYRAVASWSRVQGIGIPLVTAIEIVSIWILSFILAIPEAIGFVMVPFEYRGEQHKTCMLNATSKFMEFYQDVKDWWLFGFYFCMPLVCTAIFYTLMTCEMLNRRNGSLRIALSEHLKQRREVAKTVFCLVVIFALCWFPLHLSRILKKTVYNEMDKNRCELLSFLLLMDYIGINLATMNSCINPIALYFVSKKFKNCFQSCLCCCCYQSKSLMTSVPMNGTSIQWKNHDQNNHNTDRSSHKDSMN
Description: TGFα shedding assay, antagonist activity against ET-1 (0.5 nM)-induced AP-TGFα release.

The target in assay [1] is T2, ETA (L3.43Q) (constitutively active ETA receptor) (Homo sapiens, UniProt P25101, L176Q).
T2 sequence (P25101 21-427 L176Q): T1 sequence (P25101 21-427) with L156Q
Nature of the assay: TGFα shedding assay, inverse agonist activity (4 h incubation). The following applies: for change of the basal activity: ETA-L^3.43Q, Supplementary Fig. 6b, c.
Description: (§1) The TGFα shedding assay, which measures the activation of Gq/11 and G12/13 signaling[24], was performed as described previously[22]. Briefly, a plasmid encoding an ETB construct with an internal FLAG epitope tag or an ETA construct was transfected, together with a plasmid encoding alkaline phosphatase (AP)-tagged TGFα (AP-TGFα), into HEK293A cells by using a polyethylenimine (PEI) transfection reagent (1 µg ETR plasmid, 2.5 µg AP-TGFα plasmid, and 25 µl of 1 mg per ml PEI solution per 10-cm culture dish). […] The AP-TGFα release signals were fitted to a four-parameter sigmoidal concentration-response curve, using the Prism 7 software (GraphPad Prism), and the pEC50 (equal to −log10 EC50) and Emax values were obtained.
(§2) To measure the constitutive activity in a plasmid volume-dependent manner, HEK293 cells were seeded in a 96-well plate at a concentration of 4 × 10^5 cells per ml in Opti-MEM I Reduced Serum Media (Thermo Fisher Scientific), in a volume of 80 μl per well. […] After adding the AP reaction solution, the absorbances of the cells and the CM plates were measured at 20 min intervals. The AP-TGFα release signals were calculated as described above, and the signal in the mock-transfected conditions was set at the baseline.

Assay [2] has as its target T3, constitutively active ETB receptor (ETB-L3.43Q) (Homo sapiens, UniProt P24530, L192Q).
T3 sequence (P24530 27-442 L192Q): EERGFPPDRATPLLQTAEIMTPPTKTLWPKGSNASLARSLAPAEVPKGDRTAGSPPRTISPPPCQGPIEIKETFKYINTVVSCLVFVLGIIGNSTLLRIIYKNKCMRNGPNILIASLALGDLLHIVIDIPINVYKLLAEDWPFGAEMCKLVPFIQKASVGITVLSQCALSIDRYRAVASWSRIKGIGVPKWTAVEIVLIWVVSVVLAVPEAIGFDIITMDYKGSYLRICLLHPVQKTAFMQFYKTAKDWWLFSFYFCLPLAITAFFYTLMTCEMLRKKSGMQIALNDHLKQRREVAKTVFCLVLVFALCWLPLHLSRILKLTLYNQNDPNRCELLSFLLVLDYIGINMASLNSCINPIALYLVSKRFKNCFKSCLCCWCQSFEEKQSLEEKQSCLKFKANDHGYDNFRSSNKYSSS
Nature of the assay: TGFα shedding assay, antagonist activity against ET-1 (0.5 nM)-induced AP-TGFα release.
Description: as §1, §2

Another assay concerns the target T4, ETA (WT) (Homo sapiens, UniProt P25101).
T4 sequence (P25101 21-427): T1 sequence (P25101 21-427)
Nature of the assay: TGFα shedding assay, inverse agonist activity (4 h incubation).

Assay [3] concerns the target T5, constitutively active ETA receptor (ETA-L3.43Q) (Homo sapiens, UniProt P25101, L176Q).
T5 sequence (P25101 21-427 L176Q): T1 sequence (P25101 21-427) with L156Q
Description: TGFα shedding assay, antagonist activity against ET-1 (0.5 nM)-induced AP-TGFα release.
Description: as §1, §2

The target in another assay is T6, ETB receptor (wild type) (Homo sapiens, UniProt P24530).
T6 construct: expressed in transfected cells; host or cells: HEK293A
T6 sequence (P24530 27-442): T3 sequence (P24530 27-442 L192Q) with Q166L
The assay is described as above. Conditions: Supplementary Fig. 5d, ETB (WT). Type of assay: cell-based. How it is done: The TGFα shedding assay, which measures the activation of Gq/11 and G12/13 signaling, was performed as described previously. Briefly, a plasmid encoding an ETB construct with an internal FLAG epitope tag or an ETA construct was transfected, together with a plasmid encoding alkaline phosphatase (AP)-tagged TGFα (AP-TGFα), into HEK293A cells by using a polyethylenimine (PEI) transfection reagent (1 µg ETR plasmid, 2.5 µg AP-TGFα plasmid, and 25 µl of 1 mg per ml PEI solution per 10-cm culture dish). […] The AP-TGFα release signals were fitted to a four-parameter sigmoidal concentration-response curve, using the Prism 7 software (GraphPad Prism), and the pEC50 (equal to −log10 EC50) and Emax values were obtained.

Assay [4] deals with T7, ETB-L192^3.43Q (constitutively active ETB receptor) (Homo sapiens, UniProt P24530, L192Q).
T7 sequence (P24530 27-442 L192Q): T3 sequence (P24530 27-442 L192Q)
Nature of the assay: TGFα shedding assay, inverse agonist activity (4 h incubation). The following applies: for Emax: read-out: Emax ± SEM.
Description: as §1, §2

In a further assay the target is T8, ETB-WT (Homo sapiens, UniProt P24530).
T8 sequence (P24530 27-442): T3 sequence (P24530 27-442 L192Q) with Q166L
The description is as above. Conditions: for Emax: read-out: Emax ± SEM.

The next assay deals with ETB receptor. The arrangement: method as in PMID 8587424. Conditions: read-out: IC50 as ETB-selective antagonist; cited from earlier work.
Assay [5] concerns cold injury-mediated brain edema. The arrangement: method as in PMID 25000290, PMID 26174228. The following applies: animal model; intracerebroventricular administration; cited from earlier work.

SMILES strings stand for the structures. Changes are numbered by the printed parent chain. Where two headings read alike, the source gives them in different places.

Description for ETA (WT): as §1
Description for ETA receptor (wild type): as §1
Description for ETB-WT: as §1

The Emax is the maximal effect, on the per cent scale that the assay sets. For orientation: EC50 means the concentration at which the effect is half-maximal. As for `COc1ccccc1Oc1c(NS(=O)(=O)c2ccc(C(C)(C)C)cc2)nc(-c2ncccn2)nc1OCCC(=O)Nc1c(C)cccc1C` [K-8794], the IC50 is more than 3000 nM on ETA receptor (wild type) (Supplementary Fig. 5d, ETA (WT)); 4.2 nM in assay [2] (Supplementary Fig. 5d); more than 3000 nM in assay [3] (Supplementary Fig. 5d, ETA (L3.43Q), ET-1 0.5 nM); 8.7 nM on ETB receptor (wild type) (read-out: IC50). Besides, the Emax is recorded as less than 2% in assay [1] (Supplementary Fig. 6c, ETA (L3.43Q), AP-TGFα release, baseline = no compound, 4 h) and less than 2% at ETA (WT) (Supplementary Fig. 6c, ETA (WT), AP-TGFα release, baseline = no compound, 4 h). Also, the “pIC50 ± SEM” value in assay [2] (Supplementary Fig. 5d) amounted to 8.37 ± 0.06; on ETB receptor (wild type) it was 8.06 ± 0.04. The “pEC50 (mean ± SEM)” value in assay [4] (Table 3, ETB-L192^3.43Q, 4 h incubation) was 9.21 ± 0.04. In assay [4] (Table 3, ETB-L192^3.43Q, 4 h incubation, reduction of basal activity for inverse agonists), this molecule yielded an EC50 of 0.61 nM. Also, the “Emax ± SEM” value in [4] (Table 3, ETB-L192^3.43Q, AP-TGFα release, spontaneous release set at baseline, 4 h) was −31.5 ± 2.0%; at ETB-WT (Table 3, ETB-WT, AP-TGFα release, spontaneous release set at baseline, 4 h), less than 2%.

Regarding `Cc1cc(C)cc(C(=O)N(C)C(Cc2ccc(-c3ccccc3)cc2)C(=O)NC(Cc2c[nH]c3ccccc23)C(=O)O)c1` (centres unmarked) [IRL2500], the IC50 is more than 3000 nM against ETA receptor (wild type) (IC50 for the ETA receptor, text on Fig. 1a); less than 3160 nM at ETA receptor (wild type) (pIC50 ± SEM ETA, Fig. 1a, HEK293 cells); 1.2 nM at ETB receptor; more than 3000 nM in assay [3]. Also, the Emax in assay [1] was less than 2%; on ETA (WT), less than 2%; in assay [4], -27 ± 1.1%; on ETB-WT, less than 2%. Besides, the “change of the basal activity” value in [1] is on record as “did not change the basal activity”. Moreover, the “effect on cold injury-mediated brain edema and disruption of the blood–brain barrier” value in assay [5] is “attenuated the cold injury-mediated brain edema and disruption of the blood–brain barrier”. Further, on ETB-WT (wild-type ETB, 4 h-incubation, Fig. 4d), the “change of the receptor activation level (ligand-induced AP-TGFα release)” value is recorded as “did not change the receptor activation level”.

On to `CCCC[C@@H](NC(=O)[C@@H](Cc1cn(C(=O)OC)c2ccccc12)NC(=O)[C@H](CC(C)(C)C)NC(=O)N1[C@H](C)CCC[C@@H]1C)C(=O)O` [BQ-788], for which the IC50 against ETA receptor (wild type) (IC50, Supplementary Fig. 5d, ETA (WT)) is more than 10000 nM; in assay [2] (IC50, Supplementary Fig. 5d), 75 nM; in [2] (pIC50 ± SEM, Supplementary Fig. 5d), 74.1 nM; in assay [3], more than 10000 nM; at ETB receptor (wild type) (read-out: IC50), 110 nM; on ETB receptor (wild type) (read-out: pIC50 ± SEM (converted)), 107 nM. Moreover, the Emax in assay [1] was less than 2%; at ETA (WT), less than 2%; in [4], -18.5 ± 0.7%; on ETB-WT, less than 2%. Further, the half-maximal effective concentration (EC50) in assay [4] (EC50, Table 3, ETB-L192^3.43Q, 4 h incubation, reduction of basal activity for inverse agonists) was 0.96 nM; in assay [4] (pEC50 (mean ± SEM), Table 3, ETB-L192^3.43Q, 4 h incubation), 0.955 nM.

Turning to `COc1ccccc1Oc1c(NS(=O)(=O)c2ccc(C(C)(C)C)cc2)nc(-c2ncccn2)nc1OCCO` [Bosentan], in [1], the Emax was less than 2% and the “change of the basal activity” value was “did not change the basal activity”. Also, the Emax on ETA (WT) was less than 2%.

These data come from publication PMC6588608 (Communications Biology, 2019).
